Measurements taken from PMC6769532 (International Journal of Molecular Sciences, 2019).

T1: Riboflavin transporter 2 (RFVT2) (Homo sapiens, UniProt Q9HAB3)
T1 construct: gene SLC52A2; hRFVT2 carrying an N-terminal 6-Histidine tag
T1 sequence (Q9HAB3 1-445): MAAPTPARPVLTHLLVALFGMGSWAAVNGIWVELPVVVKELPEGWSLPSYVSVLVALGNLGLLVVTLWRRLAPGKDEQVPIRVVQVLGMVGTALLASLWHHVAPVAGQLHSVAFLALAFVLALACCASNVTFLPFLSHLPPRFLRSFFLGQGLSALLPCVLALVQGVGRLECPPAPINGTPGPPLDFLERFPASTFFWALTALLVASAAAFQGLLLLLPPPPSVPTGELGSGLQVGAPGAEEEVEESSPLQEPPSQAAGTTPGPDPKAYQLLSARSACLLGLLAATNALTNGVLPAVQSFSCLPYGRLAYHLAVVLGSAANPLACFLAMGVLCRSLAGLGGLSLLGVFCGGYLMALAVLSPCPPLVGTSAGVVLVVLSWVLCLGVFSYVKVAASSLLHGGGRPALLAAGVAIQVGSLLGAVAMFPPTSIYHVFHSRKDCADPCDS


Assays:
[1] = target: T1, Riboflavin transporter 2 (RFVT2); experiment: inhibition of [3H]riboflavin uptake in proteoliposomes with purified recombinant RFVT2, dose-response; type: biochemical
purified protein = substrate: Cc1cc2nc3c(=O)[nH]c(=O)nc-3n(C[C@H](O)[C@H](O)[C@H](O)CO)c2cc1C; experiment: purified protein

Row | IC50 [1] | Molecule | Km (purified protein)
1 | 3.3 ± 0.8 µM | Cc1cc2nc3c(=O)[nH]c(=O)nc-3n(C[C@H](O)[C@H](O)[C@H](O)COP(=O)(O)O)c2cc1C [FMN] | 
2 |  | Riboflavin transporter 2 (RFVT2) (Homo sapiens) (protein) MAAPTPARPVLTHLLVALFGMGSWAAVNGIWVELPVVVKELPEGWSLPSYVSVLVALGNLGLLVVTLWRRLAPGKDEQVPIRVVQVLGMVGTALLASLWHHVAPVAGQLHSVAFLALAFVLALACCASNVTFLPFLSHLPPRFLRSFFLGQGLSALLPCVLALVQGVGRLECPPAPINGTPGPPLDFLERFPASTFFWALTALLVASAAAFQGLLLLLPPPPSVPTGELGSGLQVGAPGAEEEVEESSPLQEPPSQAAGTTPGPDPKAYQLLSARSACLLGLLAATNALTNGVLPAVQSFSCLPYGRLAYHLAVVLGSAANPLACFLAMGVLCRSLAGLGGLSLLGVFCGGYLMALAVLSPCPPLVGTSAGVVLVVLSWVLCLGVFSYVKVAASSLLHGGGRPALLAAGVAIQVGSLLGAVAMFPPTSIYHVFHSRKDCADPCDS | 0.26 ± 0.07 µM
